One compound from patent publication US8679478B2, “Methods of lysosomal storage disease therapy” (Duke University, priority 2010, dated 2014) can be followed below.

For assay [1], the system named is GAA-KO mice. As to the kind of experiment: Weight gain, ERT plus clenbuterol. In kind it is in vivo, mouse. As to conditions: ERT plus clenbuterol v. ERT alone; male mice; p<0.05 at weeks 1-3. Here is the method:
GAA-KO mice were administered four weekly doses of rhGAA (20 mg/kg), and treated with clenbuterol (n=5) or ERT alone (n=5). […] Mean+/−standard deviation are shown. Statistically significant differences indicated (*=p<0.05; **=p<0.01).
The efficacy from gene therapy was increased by β2 agonist stimulation from clenbuterol treatment, and this benefit might be expected to affect ERT in Pompe disease, as well. Therefore, groups of 3 month-old GAA-KO mice were treated with four weekly doses of rhGAA (20 mg/kg), with or without concurrent clenbuterol treatment.

Assay [2] has as its system immune tolerant GAA-KO mice. Description: GAA activity in tissues, ERT plus β2 agonist (Example 6). In kind it is in vivo, mouse. Here is the method:
Male GAA-KO mice were administered four weekly doses of 20 mg/kg body weight of rhGAA and sacrificed one week following the last injection. Groups of mice were treated with clenbuterol (n=6), albuterol (n=4) or untreated (n=6). Mice were euthanized for tissue analysis 5 weeks after initiation of ERT.
Cerebral and cerebellar hemispheres were analyzed 5 weeks following the initiation of ERT. Groups of mice were treated with clenbuterol (n=6), albuterol (n=4) or untreated (n=6).
Two β2 agonists were evaluated in combination with ERT, clenbuterol and albuterol. […] Groups of 3 month-old immune tolerant GAA-KO mice (Raben et al., Human Mol. Genet., 2001, 10:2039-2047) were treated with four weekly doses of rhGAA (20 mg/kg body weight), with or without concurrent β2 agonist treatment.
Mice were sacrificed 7 days after the last injection. Selected tissues were collected for GAA enzyme activity and glycogen content analyses. All animal procedures were done in accordance with Duke University Institutional Animal Care and Use Committee-approved guidelines. GAA activity and glycogen content analyses, Rotarod testing, and Western blot detection of CI-MPR was performed essentially as described (Koeberl et al., Mol. Genet. Metab., 2011, 103:107-112. Wire hang testing was performed with a 0.5 cm mesh hardware cloth fixed to an 8 by 10 inch frame. Mice were placed on the wire mesh, which was slowly inverted 6 inches over a cage containing paper bedding. The latency, or time until the mouse fell into the cage, was recorded.

Each structure is given as a SMILES string.

`CC(C)(C)NCC(O)c1cc(Cl)c(N)c(Cl)c1` (stereo not drawn) [clenbuterol]: in assay [1], the weight gain entry is “increased weight gain”. Moreover, in assay [2] (cerebellum, 5 weeks after initiation of ERT, clenbuterol p=0.08, albuterol p=0.09), the GAA activity entry is “trend toward increased GAA activity”. In assay [2] (β2 agonist plus ERT v. ERT alone), the “GAA activity in tissues with reduced glycogen content” value is on record as “unchanged”.
